The source made the active and inactive calls. The rule behind the calls is not given here.
Tests used:
[1] = Cytotoxicity against rat NRK-49F cells assessed as cell viability at 10 uM incubated for 72 hrs by MTT assay; format: cell-based; settings: read-out: Activity
[2] = tested on: NRK-49F; test: Inhibition of TGF-beta-induced collagen accumulation in rat NRK-49F cells at 10 uM incubated for 2 days by PSR staining based microscopic analysis relative to control; format: functional; settings: 48 h
[3] = tested on: NIH3T3; test: Inhibition of TGF-beta-induced […] migration in mouse NIH/3T3 cells at 1 uM incubated for 24 hrs by Transwell assay; format: functional, cell-based
[4] = tested on: NRK-49F; test: Inhibition of TGF-beta-induced collagen accumulation in rat NRK-49F cells incubated for 2 days by PSR staining based microscopic analysis; format: functional, cell-based; settings: for IC50: 48 h

| IC50 [4] | Compound | viability at 72 h, 10 µM [1] | inhibition at 10 µM [2] | inhibition [3] | inhibition [4] |
| --- | --- | --- | --- | --- | --- |
|  | COc1ccc2c(Nc3ccc(NC(=O)CN4CCCCC4)cc3)cc(=O)oc2c1 | 41.3% | 74.5% |  |  |
| 3.96 µM | C[C@H]1CCCN(CC(=O)Nc2ccc(Nc3cc(=O)oc4ccccc34)cc2)C1 | 91.5% | 80.2% | Active | Dose-dependent effect |
|  | O=C(CN1CCCCC1)Nc1ccc(Nc2cc(=O)oc3ccccc23)cc1F | 67.7% | 11.3% |  |  |
|  | COc1ccc2c(Nc3ccc(NC(=O)CN4CCCC4)cc3)cc(=O)oc2c1 | 52% | 15.7% |  |  |
|  | O=C(CN1CCCCC1)Nc1ccc(Nc2cc(=O)oc3ccccc23)cc1 | 43.6% | 75.2% |  |  |
|  | CN1CCN(CC(=O)Nc2ccc(Nc3cc(=O)oc4ccccc34)cc2F)CC1 | 78.1% | 36.8% |  |  |
|  | O=C(CN1CCOCC1)Nc1ccc(Oc2cc(=O)oc3ccccc23)cc1 | 97% | 34.6% |  |  |
|  | C[C@H]1CCCN(CC(=O)Nc2ccc(Oc3cc(=O)oc4ccccc34)cc2)C1 | 98% | 75.3% |  |  |
|  | CN1CCN(CC(=O)Nc2ccc(Nc3cc(=O)oc4ccc([N+](=O)[O-])cc34)cc2)CC1 | 32.1% | 22.3% |  |  |
|  | O=C(CN1CCCC1)Nc1ccc(Oc2cc(=O)oc3ccccc23)cc1 | 82.9% | 18.8% |  |  |
|  | C[C@H]1CCCN(CC(=O)Nc2ccc(Nc3cc(=O)oc4ccccc34)cc2F)C1 | 88.5% | 21.9% |  |  |
|  | COc1ccc2c(Oc3ccc(NC(=O)CN4CCN(C)CC4)cc3)cc(=O)oc2c1 | 95.6% | 65.4% |  |  |
|  | O=C(CN1CCCCC1)Nc1ccc(Nc2cc(=O)oc3ccc([N+](=O)[O-])cc23)cc1 | 20.3% | 15.4% |  |  |
|  | COc1ccc2c(Oc3ccc(NC(=O)CN4CCCC4)cc3)cc(=O)oc2c1 | 93.3% | 8.07% |  |  |
|  | C[C@H]1CCCN(CC(=O)Nc2ccc(Nc3cc(=O)oc4ccc([N+](=O)[O-])cc34)cc2)C1 | 17.8% | 28.7% |  |  |
|  | COc1ccc2c(Nc3ccc(NC(=O)CN4CCC[C@H](C)C4)cc3)cc(=O)oc2c1 | 90.1% | 72.7% |  |  |
|  | O=C(CN1CCOCC1)Nc1ccc(Nc2cc(=O)oc3ccc([N+](=O)[O-])cc23)cc1 | 23.1% | 31.7% |  |  |
|  | COc1ccc2c(Oc3ccc(NC(=O)CN4CCC[C@H](C)C4)cc3)cc(=O)oc2c1 | 90.5% | 32.6% |  |  |
|  | O=C(CN1CCCC1)Nc1ccc(Nc2cc(=O)oc3ccccc23)cc1F | 74.3% | 33.3% |  |  |
|  | COc1ccc2c(Oc3ccc(NC(=O)CN4CCCCC4)cc3)cc(=O)oc2c1 | 90.4% | 73.5% |  |  |
|  | O=C(CN1CCOCC1)Nc1ccc(Nc2cc(=O)oc3ccccc23)cc1F | 72.3% | 34.5% |  |  |
|  | O=C(CN1CCCC1)Nc1ccc(Nc2cc(=O)oc3ccccc23)cc1 | 62% | 12.4% |  |  |
|  | O=C(CN1CCOCC1)Nc1ccc(Nc2cc(=O)oc3ccccc23)cc1 | 75.2% | 41.8% |  |  |
|  | COc1ccc2c(Nc3ccc(NC(=O)CN4CCOCC4)cc3)cc(=O)oc2c1 | 89.1% | 72.9% |  |  |
|  | CN1CCN(CC(=O)Nc2ccc(Nc3cc(=O)oc4ccccc34)cc2)CC1 | 87.5% | 26.8% |  |  |
|  | O=C(CN1CCCC1)Nc1ccc(Nc2cc(=O)oc3ccc([N+](=O)[O-])cc23)cc1 | 45.3% | 17.9% |  |  |
| 3.71 µM | COc1ccc2c(Oc3ccc(NC(=O)CN4CCOCC4)cc3)cc(=O)oc2c1 | 96.5% | 78.3% | Active | Dose-dependent effect |
|  | CN1CCN(CC(=O)Nc2ccc(Oc3cc(=O)oc4ccccc34)cc2)CC1 | 83.6% | 24% |  |  |

From ChEMBL document CHEMBL4312017, “Synthesis and discovery of new compounds bearing coumarin scaffold for the treatment of pulmonary fibrosis” (Eur J Med Chem, 2020)
